Here are results for five molecules from US20150290029A1, “Delivery Systems for Agents to treat Ocular Discomfort” (priority 2014, published 2015).

One data set addresses T1, TRPM8 receptor (Homo sapiens, UniProt Q7Z2W7).
T1 construct: ChanTest Corporation
The data set is described as follows: Receptor assay, fluorescence (Relative Fluorescence Units), ChanTest. To be noted: FIG. 4. In kind it is cell-based. As to the method:
FIG. 4 is a graph of fluorescence (Relative Fluourescence Units; % Maximum) of test compounds, as a function of the logarithm of the concentration of the test compound (μM). The compounds tested were 2-4 (circle), 2-5 (square), 2-6 (inverted triangle), 2-7 (diamond), and 2-8 (star), representing the 1 [di-sec-butyl-phosphinoyl]-butane, pentane, hexane, heptane, and octane analogs, respectively. The receptor assays were conducted by ChanTest Corporation, Cleveland, Ohio 44128. […] The 95% confidence intervals of 2-5 to 2-8 overlap.
(§1) FIG. 5. illustrates the activity of 2-5 on cells transfected with the TRPA1 and TRPV1. TRPA1 and TRPV1 receptors mediate nociception: that is, stimulation of these receptors results in irritation and pain. Capsaicin and mustard oil are the positive control substances for TRPV1 and TRPA1, respectively.

A further data set deals with skin of the eyelids. The data set is described as follows: Irritation when applied in vivo to the skin of the eyelids. To be noted: compared among analogs 2-4 to 2-8.
A further data set deals with T2, TRPA1 (Homo sapiens, UniProt O75762).
T2 construct: expressed in transfected cells
The experiment in a line: Activity on TRPA1 transfected cells. The class given is cell-based. To be noted: FIG. 5; mustard oil positive control.
Description: as §1

The target in another data set is T3, TRPV1 (Homo sapiens, UniProt Q8NER1).
T3 construct: expressed in transfected cells
The data set is described as follows: Activity on TRPV1 transfected cells. In kind it is cell-based. To be noted: FIG. 5; capsaicin positive control.
Description: as §1

A further data set has as its system ocular surface. The data set is described as follows: Periocular spray of 2-5 over the closed eye in normal subjects and dry eyes syndrome patients. The class given is in vivo, human. As to the method: Sensory discomfort of the eye is a conspicuous symptom in patients diagnosed with “dry eyes disease.” The study described below was conducted by Prof. K. C. Yoon of the Department of Ophthalmology, Chonnam National University Medical School, Gwangju, South Korea. Prof. Yoon is an acknowledged expert on the investigation of dry eyes disease and has published extensively on this subject [e.g. Yoon, K.-C. et al. Application of umbilical cord serum eyedrops for the treatment of dry eye syndrome. Cornea 25, 268-72 (2006). Yoon, K.-C. et al. Comparison of autologous serum and umbilical cord serum eye drops for dry eye syndrome. Am. J. Ophthalmol. 144, 86-92 (2007).] The methods used in these two publications were also used in the experiments described below. This report was presented as an Oral Communication entitled “Effect of a periocular spray of a TRPM8 agonist on the ocular surface” at the 110th Meeting of the Korean Ophthalmological Society, Bexco, Busan, Korea on Apr. 13, 2014.
2-5 was prepared as a 2 mg/mL solution in distilled water and administered as a spray [sprayed volume of ˜0.1 mL] over the closed right eye of test subjects. There were 20 subjects in the normal group [9 males/11 females] and 17 subjects in the group with defined “dry eyes syndrome” [7 males/10 females]. Exclusion criteria for patient selection was age of <18 years, systemic medication that may affect tear secretion, previous punctal plug insertion, history of contact lenses use, previous ocular surgery or trauma, pregnancy or lactation, and ocular or systemic disease. The average age of the subjects was 29 years, and both groups had normal values for visual acuity, intraocular pressure, and corneal sensitivity [Cochet-Bonnet esthesiometry, measured with a microfilament]. […] The score for keratoepitheliopathy [National Eye Institute system] was 0.1±0.3 and 2.5±1.7, in the normal vs the “dry eyes syndrome” group.
Subjective symptoms were graded on a numerical score. A visual analog scale score [0 to 10 units] was used for grading the degree of soothing and cooling sensation on the ocular surface. For symptoms of the dry eyes syndrome, a scale of zero to four was used, with zero representing no symptoms and four representing very severe symptoms that caused discomfort and interfered with normal activities. These methods have been described in detail elsewhere and are incorporated by reference [Yoon, K.-C. et al. Application of umbilical cord serum eyedrops for the treatment of dry eye syndrome. Cornea 25, 268-72 (2006). Yoon, K.-C. et al. Comparison of autologous serum and umbilical cord serum eye drops for dry eye syndrome. Am. J. Ophthalmol. 144, 86-92 (2007)].
The onset was less than 3 min and reached maximal effect in the first 10 min. The mean duration of cooling was 42±8 min and all cooling sensations disappeared by 1 hr. For patients previously diagnosed with “dry eyes” disease there was a reduction of symptom score from 1.8 to 0.5, a highly significant event [P<0.001]. […] However, the magnitude of the effect was not considered clinically significant and may have been due to increased sensitivity of the dry eyes patients to foreign solutions applied to the ocular surface. The keratoepitheliopathy score was not affected by treatment.
The mechanical sensitivity of the cornea, measured with the Cochet-Bonnet esthesiometer, was not affected in all patients, in the 1.5 hr test period with […], spaced 30 min apart. This is an important observation from the viewpoint of safety in use, because numbness of the corneal surface will increase risks of eye injury from foreign materials.

Another data set has as its system human ocular surface. To be noted: for Irritancy, delivery unit: wiped across the orbital skin.
[1] abbreviates: dry eyes group, first 30 min, not considered clinically significant.
[2] abbreviates: ethanol 5% wt/vol in water, scale 0-3.
[3] abbreviates: ethanol 10% wt/vol in water, scale 0-3.

Like-named read-outs stand apart in the source and are kept apart here.

T1 sequence (Q7Z2W7 whole entry): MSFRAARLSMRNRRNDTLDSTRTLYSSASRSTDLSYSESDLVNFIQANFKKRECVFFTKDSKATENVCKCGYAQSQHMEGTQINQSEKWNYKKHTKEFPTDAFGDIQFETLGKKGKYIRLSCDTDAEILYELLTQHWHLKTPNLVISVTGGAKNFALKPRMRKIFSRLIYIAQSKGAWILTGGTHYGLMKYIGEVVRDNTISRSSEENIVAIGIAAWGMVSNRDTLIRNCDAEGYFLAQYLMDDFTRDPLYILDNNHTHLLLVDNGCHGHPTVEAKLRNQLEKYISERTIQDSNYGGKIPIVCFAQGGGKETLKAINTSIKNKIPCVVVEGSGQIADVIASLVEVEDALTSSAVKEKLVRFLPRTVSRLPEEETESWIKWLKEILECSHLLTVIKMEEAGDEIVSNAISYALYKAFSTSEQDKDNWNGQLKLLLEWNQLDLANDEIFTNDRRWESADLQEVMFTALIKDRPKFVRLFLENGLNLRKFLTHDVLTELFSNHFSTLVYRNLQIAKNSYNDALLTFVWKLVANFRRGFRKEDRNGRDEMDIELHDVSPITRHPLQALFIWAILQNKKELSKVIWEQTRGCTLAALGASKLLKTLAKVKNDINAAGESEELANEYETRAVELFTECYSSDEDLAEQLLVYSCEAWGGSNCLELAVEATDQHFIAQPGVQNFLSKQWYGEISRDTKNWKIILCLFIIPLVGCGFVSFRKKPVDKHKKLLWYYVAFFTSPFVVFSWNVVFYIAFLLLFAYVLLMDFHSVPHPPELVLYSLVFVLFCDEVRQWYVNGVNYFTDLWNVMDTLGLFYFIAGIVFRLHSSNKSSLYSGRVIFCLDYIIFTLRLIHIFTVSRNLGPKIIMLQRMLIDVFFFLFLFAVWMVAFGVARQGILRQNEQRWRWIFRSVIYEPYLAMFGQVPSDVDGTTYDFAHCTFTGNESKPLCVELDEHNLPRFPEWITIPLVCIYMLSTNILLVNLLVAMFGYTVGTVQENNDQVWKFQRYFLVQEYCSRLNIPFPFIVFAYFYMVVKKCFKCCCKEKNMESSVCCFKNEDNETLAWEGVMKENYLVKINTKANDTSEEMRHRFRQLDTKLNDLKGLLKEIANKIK
T2 sequence (O75762 whole entry, species assumed): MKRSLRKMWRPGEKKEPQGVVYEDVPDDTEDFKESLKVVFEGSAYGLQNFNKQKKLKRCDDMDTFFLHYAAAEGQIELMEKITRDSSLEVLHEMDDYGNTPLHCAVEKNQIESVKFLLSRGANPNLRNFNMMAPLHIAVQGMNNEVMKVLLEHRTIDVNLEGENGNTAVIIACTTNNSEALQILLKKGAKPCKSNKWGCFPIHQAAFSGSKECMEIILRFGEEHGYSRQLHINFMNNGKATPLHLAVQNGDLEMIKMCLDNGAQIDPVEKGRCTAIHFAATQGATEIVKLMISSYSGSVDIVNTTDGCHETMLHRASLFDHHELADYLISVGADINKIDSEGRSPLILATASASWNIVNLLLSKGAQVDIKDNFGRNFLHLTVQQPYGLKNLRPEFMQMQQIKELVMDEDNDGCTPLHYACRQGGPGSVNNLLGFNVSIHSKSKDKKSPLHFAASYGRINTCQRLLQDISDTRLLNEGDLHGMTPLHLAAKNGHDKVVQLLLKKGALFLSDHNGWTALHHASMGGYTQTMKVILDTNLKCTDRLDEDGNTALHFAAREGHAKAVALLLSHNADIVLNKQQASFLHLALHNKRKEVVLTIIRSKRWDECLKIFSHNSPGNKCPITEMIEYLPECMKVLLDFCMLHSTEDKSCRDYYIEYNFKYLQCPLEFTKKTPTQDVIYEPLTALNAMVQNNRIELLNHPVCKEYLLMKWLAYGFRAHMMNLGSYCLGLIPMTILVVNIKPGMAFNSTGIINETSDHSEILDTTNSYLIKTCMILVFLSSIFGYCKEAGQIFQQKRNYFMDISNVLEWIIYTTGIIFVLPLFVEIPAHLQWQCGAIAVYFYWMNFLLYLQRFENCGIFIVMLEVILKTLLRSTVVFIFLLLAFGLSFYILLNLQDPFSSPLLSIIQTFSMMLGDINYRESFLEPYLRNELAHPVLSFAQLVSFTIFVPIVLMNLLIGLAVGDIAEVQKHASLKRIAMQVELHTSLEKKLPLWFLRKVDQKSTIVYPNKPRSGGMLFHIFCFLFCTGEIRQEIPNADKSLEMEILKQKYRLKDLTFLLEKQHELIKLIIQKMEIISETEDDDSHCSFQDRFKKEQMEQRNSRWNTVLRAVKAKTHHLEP
T3 sequence (Q8NER1 whole entry, species assumed): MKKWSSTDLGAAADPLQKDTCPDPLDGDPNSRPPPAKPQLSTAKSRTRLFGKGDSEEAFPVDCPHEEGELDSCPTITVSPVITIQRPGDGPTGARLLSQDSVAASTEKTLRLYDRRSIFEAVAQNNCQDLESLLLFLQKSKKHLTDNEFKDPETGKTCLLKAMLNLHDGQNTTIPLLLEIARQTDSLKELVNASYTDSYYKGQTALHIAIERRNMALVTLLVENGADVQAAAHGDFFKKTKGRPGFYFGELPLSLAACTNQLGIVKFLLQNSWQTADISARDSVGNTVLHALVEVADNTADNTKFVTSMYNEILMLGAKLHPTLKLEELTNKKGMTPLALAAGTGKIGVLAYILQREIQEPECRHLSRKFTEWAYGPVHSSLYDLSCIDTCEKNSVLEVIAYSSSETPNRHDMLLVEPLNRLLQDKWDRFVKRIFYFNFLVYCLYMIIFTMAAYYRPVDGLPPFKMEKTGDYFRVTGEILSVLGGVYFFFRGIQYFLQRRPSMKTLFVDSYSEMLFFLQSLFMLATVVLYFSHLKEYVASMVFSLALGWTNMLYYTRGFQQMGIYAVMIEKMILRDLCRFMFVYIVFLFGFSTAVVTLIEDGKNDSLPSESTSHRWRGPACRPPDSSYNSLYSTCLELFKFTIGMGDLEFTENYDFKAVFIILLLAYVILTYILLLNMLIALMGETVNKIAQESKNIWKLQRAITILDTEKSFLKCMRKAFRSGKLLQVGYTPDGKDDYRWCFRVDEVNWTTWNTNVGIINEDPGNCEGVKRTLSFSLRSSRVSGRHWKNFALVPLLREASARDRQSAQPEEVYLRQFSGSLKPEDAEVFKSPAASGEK
Description for human ocular surface: Subjects received different ethanol-water concentrations either in eye drops or via the delivery unit. Subjects were asked to report irritation, stinging, burning sensations, or pain in the 2 to 5 min after application. The intensity of the subjective eye sensation was rated as 0, 1, 2 or 3 with: 0 as no effect; 1 as slight; 2 as a clear-cut effect; and 3 as severe.

As for `CCCCP(=O)(C(C)CC)C(C)CC` (centres unmarked) [2-4, 1 [di-sec-butyl-phosphinoyl]-butane], at TRPM8 receptor, the “Potency relative to 1-menthol in the same assay” value (“Potency relative to 1-menthol” for short) was determined as 0.3 ×.

On to `CCCCCP(=O)(C(C)CC)C(C)CC` (centres unmarked) [2-5, 1-di(sec-butyl) phosphinoyl-pentane], for which the “Irritation when applied to the skin of the eyelids” value in the data set on skin of the eyelids is listed as “minimal irritation”. Also, on TRPA1, the “Stimulation of TRPA1” value is listed as “does not stimulate”. The “Stimulation of TRPV1” value at TRPV1 is recorded as “does not stimulate”. Besides, the “Soothing and cooling sensations on the ocular surface after blinking” value in the data set with ocular surface (2 mg/mL in distilled water, spray ~0.1 mL over closed eye) was “all subjects felt soothing and cooling sensations”. In the data set on ocular surface (2 mg/mL spray over closed eye), the “Mean duration of cooling” value was found to be 42 ± 8 min, the Onset of cooling result is listed as “less than 3 min”, the “Time by which all cooling sensations disappeared” value was not above 1 h and the “Time of maximal effect” value is given as not above 10 min. Besides, the Keratoepitheliopathy score result in the data set on ocular surface (after treatment) is given as “not affected”. For the same molecule, in the data set on ocular surface (all patients, 1.5 hr test period, 5 points of measurement), the “Mechanical sensitivity of the cornea (Cochet-Bonnet esthesiometer)” value is recorded as “not affected”. In the data set on ocular surface (setting [1]), the “Tear Film BUT” value is recorded as “slightly elevated” and the Tear secretion rates entry is listed as “slightly elevated”. In addition, the “Symptom score after treatment” value in the data set on ocular surface (dry eyes patients, scale zero to four, reduced from 1.8, P<0.001) stood at 0.5. Besides, in the data set with ocular surface (normal group), the “Tear Film BUT” value is recorded as “not significantly affected” and the Tear secretion rates result is reported as “not significantly affected”. At TRPM8 receptor, the “Potency relative to 1-menthol” value is reported as 2.2 ×.

With `CCCCCCP(=O)(C(C)CC)C(C)CC` (centres unmarked) [2-6, 1 [di-sec-butyl-phosphinoyl]-hexane], the “Potency relative to 1-menthol” value at TRPM8 receptor is given as 4-9 ×.

For `CCCCCCCCP(=O)(C(C)CC)C(C)CC` (centres unmarked) [2-8, 1 [di-sec-butyl-phosphinoyl]-octane], the “Potency relative to 1-menthol” value on TRPM8 receptor was 3.0 ×.

On to `CCO` [Ethanol], for which the Sensation upon delivery entry with human ocular surface (5% ethanol solution as an eye drop) was “clearly aversive as an eye drop, producing stinging and pain upon delivery”; in the data set on human ocular surface (20% applied to the eye with a wipe), “mild burning sensations in two subjects”. Further, the “Irritancy, eye drops” value in the data set with human ocular surface (ethanol 2.5% wt/vol in water, scale 0-3 (0 no effect, 3 strongly irritating), N = 8 experiments) was 0; in the data set on human ocular surface (setting [2]), “+2”; with human ocular surface (setting [3]), “+3”. For the same molecule, the “Irritancy, delivery unit” value in the data set on human ocular surface (ethanol 2.5% wt/vol in water, scale 0-3) is listed as 0; in the data set with human ocular surface (setting [2]), 0; with human ocular surface (setting [3]), 0; in the data set on human ocular surface (ethanol 20% wt/vol in water, scale 0-3) it was “+1”. Moreover, in the data set with human ocular surface (ethanol/water), the “Change in decreased sensitivity to irritation, swab method versus eye drops” value is reported as approximately 4 fold.
